# Laboratory results published in patent US9024017B2, “Octahydro-cyclopentapyrrolyl antagonists of CCR2” (Janssen Pharmaceutica NV, priority 2012, dated 2015).
# Biological target: T1, CCR2 (Homo sapiens, UniProt P41597)
# T1 construct: host or cells: THP-1 (human monocytic cell line)
# Assay: MCP-1 Receptor Binding Assay in THP-1 Cells
# Conditions: read-out: MCP1B_v3 IC50
# How it was run: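 Human monocytic THP-1 cells incubated 2 h at 30 °C with 0.5 nM 125I-MCP-1 and varying concentrations of test compound or unlabelled MCP-1. Cells filter-harvested and counted by scintillation; blank subtracted, compared with vehicle; nonspecific binding with 1 μM cold MCP-1.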
# T1 sequence (P41597 whole entry): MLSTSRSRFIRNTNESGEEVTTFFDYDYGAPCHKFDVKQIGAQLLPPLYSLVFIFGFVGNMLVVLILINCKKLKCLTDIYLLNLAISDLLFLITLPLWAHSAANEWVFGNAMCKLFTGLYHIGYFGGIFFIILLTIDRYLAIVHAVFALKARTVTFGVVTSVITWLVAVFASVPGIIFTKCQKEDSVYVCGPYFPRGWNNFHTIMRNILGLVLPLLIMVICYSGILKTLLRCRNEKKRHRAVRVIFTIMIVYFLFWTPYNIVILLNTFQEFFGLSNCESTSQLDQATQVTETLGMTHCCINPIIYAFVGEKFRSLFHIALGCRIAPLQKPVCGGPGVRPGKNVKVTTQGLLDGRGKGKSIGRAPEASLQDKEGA
row,SMILES,IC50 [µM]
1,"COC1COCCC1N[C@@H]1C[C@H]2CN(C=O)C[C@@]2(C(=O)N2CCc3ncc(C(F)(F)F)cc3C2)C1 (relative stereo) [Example 114, (3aR,5R,6aR)-5-(((3S*,4S*)-3-Methoxytetrahydro-2H-pyran-4-yl)amino)-3a-(3-(trifluoromethyl)-5,6,7,8-tetrahydro-1,6-naphthyridine-6-carbonyl)hexahydrocyclopenta-[c]pyrrole-2(1H)-carbaldehyde]",0.37
2,"COC1COCCC1N[C@@H]1C[C@H]2CN(/C(N)=N\C#N)C[C@@]2(C(=O)N2CCc3ncc(C(F)(F)F)cc3C2)C1 (relative stereo) [Example 115, (3aR,5R,6aR,E)-N′-Cyano-5-(((3S*,4S*)-3-methoxytetrahydro-2H-pyran-4-yl)amino)-3a-(3-(trifluoromethyl)-5,6,7,8-tetrahydro-1,6-naphthyridine-6-carbonyl)hexahydrocyclopenta-[c]pyrrole-2(1H)-carboximidamide]",0.04
3,"COC1COCCC1N[C@@H]1C[C@H]2CN(/C(N)=N/O)C[C@@]2(C(=O)N2CCc3ncc(C(F)(F)F)cc3C2)C1 (relative stereo) [Example 116, (3aR,5R,6aR,E)-N′-Hydroxy-5-(((3S*,4S*)-3-methoxytetrahydro-2H-pyran-4-yl)amino)-3a-(3-(trifluoromethyl)-5,6,7,8-tetrahydro-1,6-naphthyridine-6-carbonyl)hexahydro-cyclopenta[c]pyrrole-2(1H)-carboximidamide]",1.8
4,"COC1COCCC1N[C@@H]1C[C@H]2CN(C#N)C[C@@]2(C(=O)N2CCc3ncc(C(F)(F)F)cc3C2)C1 (relative stereo) [Example 117, (3aR,5R,6aR)-5-(((3S*,4S*)-3-Methoxytetrahydro-2H-pyran-4-yl)amino)-3a-(3-(trifluoromethyl)-5,6,7,8-tetrahydro-1,6-naphthyridine-6-carbonyl)hexahydrocyclopenta[c]pyrrole-2(1H)-carbonitrile]",5.4
5,"COC1COCCC1N[C@@H]1C[C@H]2C(=O)NC[C@@]2(C(=O)N2CCc3ncc(C(F)(F)F)cc3C2)C1 (relative stereo) [Example 118, (3aR,5R,6aR)-5-(((3S*,4S*)-3-Methoxytetrahydro-2H-pyran-4-yl)amino)-3a-(3-(trifluoromethyl)-5,6,7,8-tetrahydro-1,6-naphthyridine-6-carbonyl)hexahydro-cyclopenta[c]pyrrol-(2H)-one]",22.8
6,"COC1COCCC1N[C@@H]1C[C@H]2CNC(=O)[C@@]2(C(=O)N2CCc3ncc(C(F)(F)F)cc3C2)C1 (relative stereo) [Example 119, (3aR,5R,6aR)-5-(((3S*,4S*)-3-Methoxytetrahydro-2H-pyran-4-yl)amino)-6a-(3-(trifluoromethyl)-5,6,7,8-tetrahydro-1,6-naphthyridine-6-carbonyl)hexahydrocyclopenta-[c]pyrrol-1(2H)-one]",12
7,CO[C@@H]1COCC[C@@H]1N[C@@H]1C[C@H]2CN(C(N)=O)C[C@@]2(C(=O)N2CCc3ncc(C(F)(F)F)cc3C2)C1 [Example 3],0.03
8,CO[C@H]1COCC[C@H]1N[C@@H]1C[C@H]2CN(C(N)=O)C[C@@]2(C(=O)N2CCc3ncc(C(F)(F)F)cc3C2)C1 [Example 4],0.04
9,COCCN[C@@H]1C[C@H]2CN(C(N)=O)C[C@@]2(C(=O)N2CCc3ncc(C(F)(F)F)cc3C2)C1 [Example 7],5.06
10,NC(=O)N1C[C@@H]2C[C@@H](NC3CCOCC3)C[C@]2(C(=O)N2CCc3ncc(C(F)(F)F)cc3C2)C1 [Example 8],0.17
11,"CO[C@@H]1COCC[C@@H]1N[C@@H]1C[C@H]2CN(C(=O)OCCC3CCOCC3)C[C@@]2(C(=O)N2CCc3ncc(C(F)(F)F)cc3C2)C1 [Example 43, (3aR,5R,6aR)-2-(Tetrahydro-2H-pyran-4-yl)ethyl 5-(((3S,4S)-3-methoxytetrahydro-2H-pyran-4-yl)amino)-3a-(3-(trifluoromethyl)-5,6,7,8-tetrahydro-1,6-naphthyridine-6-carbonyl)hexahydrocyclopenta[c]pyrrole-2(1H)-carboxylate]",0.03
12,"CO[C@H]1COCC[C@H]1N[C@@H]1C[C@H]2CN(C(=O)OCCC3CCOCC3)C[C@@]2(C(=O)N2CCc3ncc(C(F)(F)F)cc3C2)C1 [Example 44, (3aR,5R,6aR)-2-(Tetrahydro-2H-pyran-4-yl)ethyl 5-(((3R,4R)-3-methoxytetrahydro-2H-pyran-4-yl)amino)-3a-(3-(trifluoromethyl)-5,6,7,8-tetrahydro-1,6-naphthyridine-6-carbonyl)hexahydrocyclopenta[c]pyrrole-2(1H)-carboxylate]",0.08
13,"COC1COCCC1N[C@@H]1C[C@H]2CN(C(=O)OCc3cccc(C#N)c3)C[C@@]2(C(=O)N2CCc3ncc(C(F)(F)F)cc3C2)C1 (stereo partly drawn) [Example 59, (3aR,5R,6aR)-3-Cyanobenzyl 5-((3-methoxytetrahydro-2H-pyran-4-yl)amino)-3a-(3-(trifluoromethyl)-5,6,7,8-tetrahydro-1,6-naphthyridine-6-carbonyl)hexahydrocyclopenta-[c]pyrrole-2(1H)-carboxylate]",0.22
